Source: US5132293A, “Enzymic alteration of hair growth” (priority 1991, dated 1992)
Read-outs that look alike come from different tables or passages of the source.

Assays:
[1] = system: brain 4-aminobutyric acid levels; details: transformation catalyzed by mitochondrial monoamine oxidase; cited from earlier work
[2] = system: hamster flank organ; details: topical application; cited from earlier work
[3] = system: flank organ hair; assay: Hamster flank organ hair growth inhibition by topical inhibitor (hair mass, treated organ vs vehicle-treated organ); type: in vivo, male intact Golden Syrian hamsters; details: for Flank Organ Hair Mass, Treated: ± SE; for Hair Growth Inhibition: percent decrease vs vehicle-treated organ
Procedure: A series of compositions was prepared each containing a given concentration of specified inhibitor in the foregoing vehicle, as listed in Table 1 below.
Four groups (eight animals in each group) of male intact Golden Syrian hamsters were provided. These animals were considered acceptable models for human beard hair growth in that they display oval shaped flank organs, one on each side, each about 8 mm in major diameter, which grow thick black and coarse hair similar to human beard hair. These organs produce hair in response to androgens in the hamster. The flank organs of each hamster were depilated by applying a thioglycolate-based chemical depilatory (Surgex), and to one organ of each animal was applied 10 μL. of vehicle alone once a day, while to the other organ of each animal was applied an equal amount of vehicle containing inhibitor. After 14 such applications (Mon.-Fri.) over a period of 18 days, the flank organs were shaved and the amount of recovered hair (hair mass) from each was weighed. The extent of reduction in hair growth by the inhibitor was expressed as the percent decrease in hair mass on the organ treated with inhibitor as compared to the organ treated with vehicle alone. As a control, one group of eight animals had both flank organs of each animal treated with vehicle alone.
The same procedure was followed as in Example 1 except that the vehicle used for the compositions consisted of water alone.
The same test procedure was followed except that the compositions were applied to the hamster flank organs every day for fifteen successive days, at which time hair mass was measured; the results were as follows: […]

[4] = system: sebaceous glands; details: cited from earlier work
[5] = system: sebum excretion; details: topical, cited from earlier work
[6] = system: hair growth; details: intact males; Table 3, Group VI vs. Group X; cited from earlier work
[7] = Table 1, 5% of each inhibitor in water/ethanol/glycol vehicle, 10 μL once a day, 14 applications over 18 days
[8] = Table 1, 5% of each inhibitor in water/ethanol/glycol vehicle, 14 applications over 18 days
[9] = Table 3, 5% of each inhibitor, Example 1 vehicle, every day for fifteen successive days

For `C#CC(N)CCCN` (stereo not shown) [5-hexyne-1,4-diamine], the “brain 4-aminobutyric acid levels” value [1] is listed as “increases in brain 4-aminobutyric acid levels”.

For `CCC[C@]1(O)CC[C@H]2[C@@H]3CCC4=CC(=O)CC[C@]4(C)[C@H]3CC[C@@]21C` [17β-hydroxy-17α-propylandrost-4-en-3-one], the “reduction in hair growth of the hamster flank organ” value [2] is given as “substantial reduction in hair growth” and the “size of the flank organ” value [2] is given as “reduction in the size of the flank organ”.

With `CCC(=NNC(=N)N)C(CC)=NNC(=N)N` [DEGBG, diethylglyoxal bis(guanylhydrazone)] the “Flank Organ Hair Mass, Treated” value ([3]; Table 2, 2.5% inhibitor, vehicle water alone, 14 applications over 18 days) was 2.62 ± .15 mg and the “Hair Growth Inhibition” value ([3]; Table 2, 2.5% inhibitor, vehicle water alone) was 15.9 ± 5.2%.

With `NCCC[C@](N)(C(=O)O)C(F)F` [DFMO, 2-(difluoromethyl)-ornithine] the “Flank Organ Hair Mass, Treated” value [3, 7] was 0.99 ± .08 mg, the “Hair Growth Inhibition” value [3, 8] was 64.3 ± 3.7% and the “Flank Organ Hair Mass, Treated” value ([3]; Table 2, 5% inhibitor, vehicle water alone, 14 applications over 18 days) was 2.70 ± .22 mg. For the same compound, the “Hair Growth Inhibition” value ([3]; Table 2, 5% inhibitor, vehicle water alone) was 18.8 ± 3.7%, the “Hair Growth Inhibition” value [3, 9] was 44.4 ± 18.2% and the “Flank Organ Hair Mass, Treated” value [3, 9] was 0.49 ± .14 mg.

In the case of `CN(CCON)C[C@H]1O[C@@H](n2cnc3c(N)ncnc32)[C@H](O)[C@@H]1O` [MAOEA, 5'-deoxy-5'-[N-methyl-N-(2-[aminooxy]ethyl)] aminoadenosine], the “Flank Organ Hair Mass, Treated” value [3, 7] is reported as 2.03 ± .18 mg and the “Hair Growth Inhibition” value [3, 8] is reported as 29.4 ± 5.9%.

In the case of `CC(C=NNC(=N)N)=NNC(=N)N` [MGBG, methylglyoxal bis(guanylhydrazone)], the “Flank Organ Hair Mass, Treated” value [3, 7] is reported as 1.54 ± .22 mg, the “Hair Growth Inhibition” value [3, 8] is reported as 40.3 ± 7.4% and the “Hair Growth Inhibition” value [3, 9] is reported as 42.3 ± 8.2%. For the same compound, the “Flank Organ Hair Mass, Treated” value [3, 9] was 0.56 ± .11 mg.

For `CC(=O)[C@H]1CC[C@H]2[C@@H]3CCC4=CC(=O)CC[C@]4(C)[C@H]3CC[C@]12C` [progesterone], the effectiveness of progesterone ([4]; female) is given as “effective in the female”, the effectiveness of progesterone ([4]; male) is given as “not in the male” and the “reducing sebum excretion rates” value ([5]; females) is given as “effective in reducing sebum excretion rates in females”. The “reducing sebum excretion rates” value ([5]; males) was “without effect in males” and the “effect on inhibition of hair growth” value [6] was “doubtful”.
